Patent publication US20140107109A1, “AMINO-DIHYDROTHIAZINE AND AMINO-DIOXIDO DIHYDROTHIAZINE COMPOUNDS AS BETA-SECRETASE ANTAGONISTS AND METHODS OF USE” (Amgen Inc., priority 2012, published 2014)
Like-named read-outs stand apart in the source and are kept apart here.

What was measured:
[1] = molecular target: T1, Cathepsin D (Cat D) (Homo sapiens, UniProt P07339); experiment: In vitro enzymatic Cathepsin D (Cat D) FRET assay; type: biochemical; conditions: read-out: CatD IC50
T1 construct: Recombinant Cat D was expressed in CHO cells; made in house; host or cells: CHO cells
T1 sequence (P07339 65-412, species assumed): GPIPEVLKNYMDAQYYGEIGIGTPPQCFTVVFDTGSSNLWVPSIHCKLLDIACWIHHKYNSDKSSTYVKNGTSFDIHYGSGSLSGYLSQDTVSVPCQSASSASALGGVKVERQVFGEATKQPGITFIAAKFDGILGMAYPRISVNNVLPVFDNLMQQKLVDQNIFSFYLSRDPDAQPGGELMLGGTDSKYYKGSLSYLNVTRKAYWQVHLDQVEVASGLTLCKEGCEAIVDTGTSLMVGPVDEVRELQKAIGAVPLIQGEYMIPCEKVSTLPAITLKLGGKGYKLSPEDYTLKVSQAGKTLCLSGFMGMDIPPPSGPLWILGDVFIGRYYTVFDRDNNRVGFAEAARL
Procedure, shortened: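 Recombinant Cat D expressed in CHO cells, used at 9 nM and pre-incubated one hour with serially diluted inhibitor in DMSO. Peptide substrate carries a fluorophore and quencher flanking the cleavage site; reaction stopped with Tris buffer raising pH to neutrality, then fluorescence read.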

[2] = system: Aβ40 in conditioned medium of cells stably expressing Amyloid Precursor Protein (APP); experiment: In vitro BACE cell-based assay (HEK cell assay), Aβ40 sandwich ELISA; conditions: Homo sapiens, HEK293
Procedure, shortened: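 APP-stably expressing cells (40K/well, grown 24 h in DMEM/10% FBS) were treated 24 h with compounds in 10-point dose response starting at 100 μM or 10 μM, 0.1% DMSO final. Secreted Aβ40 was measured by sandwich ELISA (pAb40 capture, biotinylated 6E10 detection, europium time-resolved fluorescence); IC50 from percent inhibition.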

[3] = molecular target: Beta Secretase enzyme (BACE1) (Homo sapiens, UniProt P56817); experiment: In vitro enzymatic BACE FRET assay; type: biochemical; conditions: read-out: BACE1 FRET assay IC50
Sequence of Beta Secretase enzyme (BACE1) (P56817 46-501): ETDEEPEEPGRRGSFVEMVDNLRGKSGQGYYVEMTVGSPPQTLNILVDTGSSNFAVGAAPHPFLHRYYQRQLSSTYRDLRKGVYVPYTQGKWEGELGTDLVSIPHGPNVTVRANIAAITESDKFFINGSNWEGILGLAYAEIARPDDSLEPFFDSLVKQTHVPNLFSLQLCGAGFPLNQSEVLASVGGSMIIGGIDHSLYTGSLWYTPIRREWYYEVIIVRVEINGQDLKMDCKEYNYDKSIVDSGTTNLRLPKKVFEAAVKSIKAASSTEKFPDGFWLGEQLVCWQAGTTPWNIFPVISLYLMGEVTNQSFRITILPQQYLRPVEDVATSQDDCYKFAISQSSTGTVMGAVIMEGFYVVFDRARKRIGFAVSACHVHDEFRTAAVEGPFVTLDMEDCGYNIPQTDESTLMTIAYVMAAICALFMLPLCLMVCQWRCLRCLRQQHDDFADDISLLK
Procedure, shortened: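 BACE1 cleavage of a 50 nM fluorophore/quencher peptide FRET substrate ran for one hour in 0.05 M acetate pH 4.2, 10% DMSO, 100 uM genapol. Tris buffer raised pH to neutrality to stop the reaction before fluorescence was read (excitation 488 nm, […]).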

Row | SMILES | IC50 [1] | IC50 ([2]; average IC50, HEK cell assay) | IC50 ([3]; average IC50, enzyme assay) | IC50 [2] | IC50 [3]
1 | CC1(C)C(N)=N[C@](C)(c2cc(NC(=O)c3ncc(C(F)F)cc3Cl)cnc2F)CS1(=O)=O [Example 348, N-(5-((3R)-5-amino-3,6,6-trimethyl-1,1-dioxido-3,6-dihydro-2H-1,4-thiazin-3-yl)-6-fluoro-3-pyridinyl)-3-chloro-5-(difluoromethyl)-2-pyridinecarboxamide] | 490 µM | 0.00992 µM | 0.00589 µM |  | 
2 | CC#CCOc1cnc(C(=O)Nc2cnc(F)c([C@]3(C)CS(=O)(=O)C4(CCC4)C(N)=N3)c2)c(C)c1 [Example 349, N-(5-((7R)-9-amino-7-methyl-5,5-dioxido-5-thia-8-azaspiro[3.5]non-8-en-7-yl)-6-fluoro-3-pyridinyl)-5-(2-butyn-1-yloxy)-3-methyl-2-pyridinecarboxamide] | 196 µM | 0.0013 µM | 0.00078 µM |  | 
3 | Cc1cc(OCC(F)(F)F)cnc1C(=O)Nc1cnc(F)c([C@]2(C)CS(=O)(=O)C3(CCC3)C(N)=N2)c1 [Example 350, N-(5-((7R)-9-amino-7-methyl-5,5-dioxido-5-thia-8-azaspiro[3.5]non-8-en-7-yl)-6-fluoro-3-pyridinyl)-3-methyl-5-(2,2,2-trifluoroethoxy)-2-pyridinecarboxamide] | > 400 µM | 0.0345 µM | 0.00606 µM |  | 
4 | COCc1cc(Cl)cnc1C(=O)Nc1ccc(F)c([C@]2(C)CS(=O)(=O)C(C)(C)C(N)=N2)c1 [Example 351, N-(3-((3R)-5-amino-3,6,6-trimethyl-1,1-dioxido-3,6-dihydro-2H-1,4-thiazin-3-yl)-4-fluorophenyl)-5-chloro-3-(methoxymethyl)-2-pyridinecarboxamide] | > 14.8 µM | 0.0027 µM | 0.00052 µM |  | 
5 | CC1(C)C(N)=N[C@](C)(c2cc(NC(=O)c3ncc(Cl)cc3Br)ccc2F)CS1(=O)=O [Example 352, N-(3-((3R)-5-amino-3,6,6-trimethyl-1,1-dioxido-3,6-dihydro-2H-1,4-thiazin-3-yl)-4-fluorophenyl)-3-bromo-5-chloro-2-pyridinecarboxamide] | 410 µM | 0.0009 µM | 0.0008 µM |  | 
6 | Cc1cc(Cl)ccc1C(=O)Nc1ccc(F)c([C@]2(C)CS(=O)(=O)C(C)(C)C(N)=N2)c1 [Example 353, N-(3-((3R)-5-amino-3,6,6-trimethyl-1,1-dioxido-3,6-dihydro-2H-1,4-thiazin-3-yl)-4-fluorophenyl)-4-chloro-2-methylbenzamide] | 708 µM | 0.0166 µM | 0.00652 µM |  | 
7 | COc1ccc(C(=O)Nc2ccc(F)c([C@]3(C)CS(=O)(=O)C(C)(C)C(N)=N3)c2)c(F)c1 [Example 354, N-(3-((3R)-5-amino-3,6,6-trimethyl-1,1-dioxido-3,6-dihydro-2H-1,4-thiazin-3-yl)-4-fluorophenyl)-2-fluoro-4-methoxybenzamide] | 1330 µM | 0.0187 µM | 0.0424 µM |  | 
8 | Cc1cc(C#N)cnc1C(=O)Nc1ccc(F)c([C@]2(C)CS(=O)(=O)C(C)(C)C(N)=N2)c1 [Example 355, N-(3-((3R)-5-amino-3,6,6-trimethyl-1,1-dioxido-3,6-dihydro-2H-1,4-thiazin-3-yl)-4-fluorophenyl)-5-cyano-3-methyl-2-pyridinecarboxamide] | 283 µM | 0.0005 µM | 0.0003 µM |  | 
9 | CC1(C)C(N)=N[C@](C)(c2cc(NC(=O)c3ncc(C#N)cc3Cl)ccc2F)CS1(=O)=O [Example 356, N-(3-((3R)-5-amino-3,6,6-trimethyl-1,1-dioxido-3,6-dihydro-2H-1,4-thiazin-3-yl)-4-fluorophenyl)-3-chloro-5-cyano-2-pyridinecarboxamide] | 710 µM | 0.0012 µM | 0.00035 µM |  | 
10 | COc1cnc(C(=O)Nc2ccc(F)c([C@]3(C)CS(=O)(=O)C(C)(C)C(N)=N3)c2)c(C)c1 [Example 357, N-(3-((3R)-5-amino-3,6,6-trimethyl-1,1-dioxido-3,6-dihydro-2H-1,4-thiazin-3-yl)-4-fluorophenyl)-5-methoxy-3-methyl-2-pyridinecarboxamide] | 228 µM | 0.0025 µM | 0.00283 µM |  | 
11 | Cc1cc(OC(F)F)cnc1C(=O)Nc1cnc(F)c([C@]2(C)CS(=O)(=O)C3(CCC3)C(N)=N2)c1 [Example 358, N-(5-((7R)-9-amino-7-methyl-5,5-dioxido-5-thia-8-azaspiro[3.5]non-8-en-7-yl)-6-fluoro-3-pyridinyl)-5-(difluoromethoxy)-3-methyl-2-pyridinecarboxamide] | 139 µM | 0.0095 µM | 0.00642 µM |  | 
12 | Cc1cc(Cl)cnc1C(=O)Nc1cnc(F)c([C@]2(C)CS(=O)(=O)C3(CCC3)C(N)=N2)c1 [Example 359, N-(5-((7R)-9-amino-7-methyl-5,5-dioxido-5-thia-8-azaspiro[3.5]non-8-en-7-yl)-6-fluoro-3-pyridinyl)-5-chloro-3-methyl-2-pyridinecarboxamide] | 105 µM | 0.00521 µM | 0.0022 µM |  | 
13 | Cc1cnc(C(=O)Nc2ccc(F)c([C@]3(CF)CS(=O)(=O)C(C)(C)C(N)=N3)c2)c(C)c1 [Example 360, N-(3-((3S)-5-amino-3-(fluoromethyl)-6,6-dimethyl-1,1-dioxido-3,6-dihydro-2H-1,4-thiazin-3-yl)-4-fluorophenyl)-3,5-dimethyl-2-pyridinecarboxamide] | 636 µM | 0.0245 µM | 0.00299 µM |  | 

More lines, now with the values ahead:

Row | IC50 [1] | IC50 ([2]; average IC50, HEK cell assay) | IC50 ([3]; average IC50, enzyme assay) | IC50 [2] | IC50 [3] | SMILES
14 | 437 µM | 0.0193 µM | 0.0008 µM |  |  | CC1(C)C(N)=N[C@](CF)(c2cc(NC(=O)c3ccc(C(F)F)cn3)ccc2F)CS1(=O)=O [Example 361, N-(3-((3S)-5-amino-3-(fluoromethyl)-6,6-dimethyl-1,1-dioxido-3,6-dihydro-2H-1,4-thiazin-3-yl)-4-fluorophenyl)-5-(difluoromethyl)-2-pyridinecarboxamide]
15 | 303 µM | 0.0035 µM | 0.0003 µM |  |  | CC1(C)C(N)=N[C@](CF)(c2cc(NC(=O)c3ccc(OC(F)F)cn3)ccc2F)CS1(=O)=O [Example 362, N-(3-((3S)-5-amino-3-(fluoromethyl)-6,6-dimethyl-1,1-dioxido-3,6-dihydro-2H-1,4-thiazin-3-yl)-4-fluorophenyl)-5-(difluoromethoxy)-2-pyridinecarboxamide]
16 | > 400 µM | 0.0456 µM | 0.0017 µM |  |  | CC1(C)C(N)=N[C@](CF)(c2cc(NC(=O)c3ccc(F)cn3)ccc2F)CS1(=O)=O [Example 363, N-(3-((3S)-5-amino-3-(fluoromethyl)-6,6-dimethyl-1,1-dioxido-3,6-dihydro-2H-1,4-thiazin-3-yl)-4-fluorophenyl)-5-fluoro-2-pyridinecarboxamide]
17 | 858 µM | 0.0214 µM | 0.0005 µM |  |  | CC1(C)C(N)=N[C@](CF)(c2cc(NC(=O)c3cnc(OCC(F)F)cn3)ccc2F)CS1(=O)=O [Example 364, N-(3-((3S)-5-amino-3-(fluoromethyl)-6,6-dimethyl-1,1-dioxido-3,6-dihydro-2H-1,4-thiazin-3-yl)-4-fluorophenyl)-5-(2,2-difluoroethoxy)-2-pyrazinecarboxamide]
18 | > 400 µM | 0.0447 µM | 0.00097 µM |  |  | CC1(C)C(N)=N[C@](CF)(c2cc(NC(=O)c3cnc(OCCF)cn3)ccc2F)CS1(=O)=O [Example 365, N-(3-((3S)-5-amino-3-(fluoromethyl)-6,6-dimethyl-1,1-dioxido-3,6-dihydro-2H-1,4-thiazin-3-yl)-4-fluorophenyl)-5-(2-fluoroethoxy)-2-pyrazinecarboxamide]
19 | 241 µM | 0.0141 µM | 0.00079 µM |  |  | Cc1cc(Cl)cnc1C(=O)Nc1ccc(F)c([C@]2(CF)CS(=O)(=O)C3(CCC3)C(N)=N2)c1 [Example 366, N-(3-((7S)-9-amino-7-(fluoromethyl)-5,5-dioxido-5-thia-8-azaspiro[3.5]non-8-en-7-yl)-4-fluorophenyl)-5-chloro-3-methyl-2-pyridinecarboxamide]
20 | > 400 µM | 0.0137 µM | 0.00507 µM |  |  | Cc1c(C(=O)Nc2ccc(F)c([C@]3(CF)CS(=O)(=O)C4(CCC4)C(N)=N3)c2)nc2ccc(Cl)cn12 [Example 367, N-(3-((7S)-9-amino-7-(fluoromethyl)-5,5-dioxido-5-thia-8-azaspiro[3.5]non-8-en-7-yl)-4-fluorophenyl)-6-chloro-3-methylimidazo[1,2-a]pyridine-2-carboxamide]
21 | 222 µM | 0.0046 µM | 0.00064 µM |  |  | Cc1cc(C#N)cnc1C(=O)Nc1ccc(F)c([C@]2(CF)CS(=O)(=O)C3(CCC3)C(N)=N2)c1 [Example 368, N-(3-((7S)-9-amino-7-(fluoromethyl)-5,5-dioxido-5-thia-8-azaspiro[3.5]non-8-en-7-yl)-4-fluorophenyl)-5-cyano-3-methyl-2-pyridinecarboxamide]
22 | 233 µM |  |  | 0.0123 µM | 0.0014 µM | Cc1cc(C(F)F)cnc1C(=O)Nc1ccc(F)c([C@]2(CF)CS(=O)(=O)C3(CCC3)C(N)=N2)c1 [Example 369, N-(3-((7S)-9-amino-7-(fluoromethyl)-5,5-dioxido-5-thia-8-azaspiro[3.5]non-8-en-7-yl)-4-fluorophenyl)-5-(difluoromethyl)-3-methyl-2-pyridinecarboxamide]
